This is an account of results in patent publication US20250145594A1, “MODULATORS OF THE INTEGRATED STRESS PATHWAY” (Calico Life Sciences LLC, priority 2020, published 2025).

One experiment has as its system ATF4 luciferase reporter in HEK293T cells. Description: ATF4-Luc assay (in vitro model of VWMD). In kind it is cell-based, human. As to conditions: HEK293T cells carrying the ATF4 luciferase reporter, 1 μg/mL tunicamycin, 7 hours, One Glo luminescence. The method in brief: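 Tunicamycin (1 μg/mL) stress with co-added compound for 7 hours in HEK293T cells stably carrying an ATF4 5′-UTR–luciferase reporter. EC50 values come from the luminescent signal (One Glo).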
Usually EC50 stands for the midpoint of the concentration-response curve. On to `O=C(COc1ccc(Cl)c(F)c1)NC12CC(n3cc(OCCCOC(F)(F)F)cn3)(C1)C2` [Compound 607, 2-(4-chloro-3-fluorophenoxy)-N-(3-{4-[3-(trifluoromethoxy)propoxy]-1H-pyrazol-1-yl}bicyclo[1.1.1]pentan-1-yl)acetamide], for which the concentration giving a half-maximal response (EC50) was less than 10 nM.

Staying with this experiment, now noted: Homo sapiens, HEK-293T, 7 h, HEK293T cells carrying the ATF4 luciferase reporter, 1 μg/mL tunicamycin, One Glo luminescence.
For the compound `O=C(N[C@H]1CC[C@H](n2cc(OCCOC(F)(F)F)cn2)CC1)[C@H]1C[C@@H](O)c2cc(F)ccc2O1` [Compound 523, (2R,4R)-6-fluoro-4-hydroxy-N-[(1r,4R)-4-{4-[2-(trifluoromethoxy)ethoxy]-1H-pyrazol-1-yl}cyclohexyl]-3,4-dihydro-2H-1-benzopyran-2-carboxamide], the EC50 is less than 10 nM.

For the compound `COc1ccc2nn(C34CCC(NC(=O)COc5ccc(Cl)c(F)c5)(CC3)[C@@H](O)C4)cc2c1` [Compound 597, 2-(4-chloro-3-fluorophenoxy)-N-[(2S)-2-hydroxy-4-(5-methoxy-2H-indazol-2-yl)bicyclo[2.2.2]octan-1-yl]acetamide], the concentration for a half-maximal effect (EC50) is 10 to 50 nM.

`O=C(NC12CC(n3cc(OCCOC(F)(F)F)nn3)(C1)C2)[C@H]1C[C@@H](O)c2cc(Cl)ccc2O1` [Compound 487, (2R,4R)-6-chloro-4-hydroxy-N-(3-{4-[2-(trifluoromethoxy)ethoxy]-1H-1,2,3-triazol-1-yl}bicyclo[1.1.1]pentan-1-yl)-3,4-dihydro-2H-1-benzopyran-2-carboxamide]: the half-maximal effective concentration (EC50) was less than 10 nM.

For `O=C(NC12CC(n3cc(OCCCOC(F)(F)F)cn3)(C1)C2)[C@H]1C[C@@H](O)c2cc(C(F)(F)F)c(F)cc2O1` [Compound 635, (2R,4R)-7-fluoro-4-hydroxy-N-(3-{4-[3-(trifluoromethoxy)propoxy]-1H-pyrazol-1-yl}bicyclo[1.1.1]pentan-1-yl)-6-(trifluoromethyl)-3,4-dihydro-2H-1-benzopyran-2-carboxamide], the EC50 is less than 10 nM.

`O=C(COc1ccc(Cl)c(F)c1)N[C@H]1CC[C@H](n2cc(C(=O)N3CC[C@H](OC(F)(F)F)C3)cn2)CC1` [Compound 609, 2-(4-chloro-3-fluorophenoxy)-N-[(1S,4r)-4-{4-[(3S)-3-(trifluoromethoxy)pyrrolidine-1-carbonyl]-1H-pyrazol-1-yl}cyclohexyl]acetamide]: the concentration giving a half-maximal response (EC50) was less than 10 nM.

Regarding `O=C(NC12CC(n3cc(OCCOC(F)(F)F)cn3)(C1)C2)[C@H]1C[C@@H](O)c2cc(C(F)(F)F)c(F)cc2O1` [Compound 483, (2R,4R)-7-fluoro-4-hydroxy-N-(3-{4-[2-(trifluoromethoxy)ethoxy]-1H-pyrazol-1-yl}bicyclo[1.1.1]pentan-1-yl)-6-(trifluoromethyl)-3,4-dihydro-2H-1-benzopyran-2-carboxamide], the EC50 was less than 10 nM.

For the compound `C[C@H](COC(F)(F)F)Oc1cnn(C23CC(NC(=O)[C@H]4C[C@@H](O)c5cc(Cl)ccc5O4)(C2)C3)c1` [Compound 440, (2R,4R)-6-chloro-4-hydroxy-N-[3-(4-{[(2R)-1-(trifluoromethoxy)propan-2-yl]oxy}-1H-pyrazol-1-yl)bicyclo[1.1.1]pentan-1-yl]-3,4-dihydro-2H-1-benzopyran-2-carboxamide], the EC50 is 10 to 50 nM.

For the compound `Cn1nc(C23CC(NC(=O)COc4ccc(Cl)c(F)c4)(C2)C3)cc1O[C@H]1C[C@@H](OC(F)(F)F)C1` [Compound 345, 2-(4-chloro-3-fluorophenoxy)-N-[3-(1-methyl-5-{[cis-3-(trifluoromethoxy)cyclobutyl]oxy}-1H-pyrazol-3-yl)bicyclo[1.1.1]pentan-1-yl]acetamide], the EC50 lay in the range of 50 to 250 nM.

`O=C(NC12CC(c3ccc(C(=O)N4CC(COC(F)(F)F)C4)nc3)(C1)C2)[C@H]1C[C@@H](O)c2cc(Cl)ccc2O1` [Compound 537, (2R,4R)-6-chloro-4-hydroxy-N-[3-(6-{3-[(trifluoromethoxy)methyl]azetidine-1-carbonyl}pyridin-3-yl)bicyclo[1.1.1]pentan-1-yl]-3,4-dihydro-2H-1-benzopyran-2-carboxamide]: the 50% effective concentration (EC50) was less than 10 nM.

Regarding `O=C(NC12CC(n3cc(C(=O)N4CC[C@@H](OC(F)(F)F)C4)cn3)(C1)C2)[C@H]1C[C@@H](O)c2cc(Cl)ccc2O1` [Compound 370, (2R,4R)-6-chloro-4-hydroxy-N-(3-{4-[(3R)-3-(trifluoromethoxy)pyrrolidine-1-carbonyl]-1H-pyrazol-1-yl}bicyclo[1.1.1]pentan-1-yl)-3,4-dihydro-2H-1-benzopyran-2-carboxamide], the EC50 was 10 to 50 nM.

Consider `O=C(NC12CC(n3cnc(C(=O)N4CC(OC(F)(F)F)C4)c3)(C1)C2)[C@H]1C[C@@H](O)c2cc(Cl)ccc2O1` [Compound 395, (2R,4R)-6-chloro-4-hydroxy-N-(3-{4-[3-(trifluoromethoxy)azetidine-1-carbonyl]-1H-imidazol-1-yl}bicyclo[1.1.1]pentan-1-yl)-3,4-dihydro-2H-1-benzopyran-2-carboxamide], for which the EC50 fell in the range of 10 to 50 nM.

As to `O=C(NC12CC(c3cnc([C@H]4C[C@@H](OC(F)(F)F)C4)o3)(C1)C2)[C@H]1C[C@@H](O)c2cc(Cl)ccc2O1` [Compound 410, (2R,4R)-6-chloro-4-hydroxy-N-(3-{2-[cis-3-(trifluoromethoxy)cyclobutyl]-1,3-oxazol-5-yl}bicyclo[1.1.1]pentan-1-yl)-3,4-dihydro-2H-1-benzopyran-2-carboxamide], the EC50 is less than 10 nM.

As to `O=C(NC12CC(n3cc(O[C@H]4C[C@H](COC(F)(F)F)C4)cn3)(C1)C2)[C@H]1C[C@@H](O)c2cc(Cl)ccc2O1` [Compound 588, (2R,4R)-6-chloro-4-hydroxy-N-{3-[4-(((1r,3R)-3-[(trifluoromethoxy)methyl]cyclobutyl}oxy)-1H-pyrazol-1-yl]bicyclo[1.1.1]pentan-1-yl)-3,4-dihydro-2H-1-benzopyran-2-carboxamide], the 50% effective concentration (EC50) fell in the range of 10 to 50 nM.

In the case of `O=C(NC12CC(n3cnc(-c4c(F)cc(Cl)cc4F)c3)(C1)C2)[C@H]1C[C@@H](O)c2cc(Cl)ccc2O1` [Compound 344, (2R,4R)-6-chloro-N-{3-[4-(4-chloro-2,6-difluorophenyl)-1H-imidazol-1-yl]bicyclo[1.1.1]pentan-1-yl}-4-hydroxy-3,4-dihydro-2H-1-benzopyran-2-carboxamide], the EC50 was less than 10 nM.

Regarding `O=C(CO[C@H]1C[C@@H](OC(F)(F)F)C1)NC12CCC(NC(=O)[C@H]3C[C@@H](O)c4cc(C(F)(F)F)ccc4O3)(CC1)[C@@H](O)C2` [Compound 489, (2R,4R)-4-hydroxy-N-[(2S)-2-hydroxy-4-(2-{[(1s,3R)-3-(trifluoromethoxy)cyclobutyl]oxy}acetamido)bicyclo[2.2.2]octan-1-yl]-6-(trifluoromethyl)-3,4-dihydro-2H-1-benzopyran-2-carboxamide], the EC50 was less than 10 nM.

In the case of `O=C(NC12CC(n3cc(C4CC(OC(F)(F)F)C4)nn3)(C1)C2)[C@H]1C[C@@H](O)c2cc(C(F)(F)F)ccc2O1` (stereo partly drawn) [Compound 470, (2R,4R)-4-hydroxy-N-(3-{4-[(1s,3S)-3-(trifluoromethoxy)cyclobutyl]-1H-1,2,3-triazol-1-yl}bicyclo[1.1.1]pentan-1-yl)-6-(trifluoromethyl)-3,4-dihydro-2H-1-benzopyran-2-carboxamide], the half-maximal effective concentration (EC50) is less than 10 nM.

For the compound `O=C(COc1ccc(Cl)c(F)c1)NC12CC(n3cc(OCCCOC(F)(F)F)cn3)(C1)C2` [Compound 454, 2-(4-chloro-3-fluorophenoxy)-N-(3-{4-[3-(trifluoromethoxy)propoxy]-1H-pyrazol-1-yl}bicyclo[1.1.1]pentan-1-yl)acetamide], the 50% effective concentration (EC50) was less than 10 nM.

Turning to `O=C(NC12CC(n3cc(N4CC[C@@H](OC(F)(F)F)C4)cn3)(C1)C2)[C@H]1C[C@@H](O)c2cc(Cl)ccc2O1` [Compound 356, (2R,4R)-6-chloro-4-hydroxy-N-(3-{4-[(3R)-3-(trifluoromethoxy)pyrrolidin-1-yl]-1H-pyrazol-1-yl}bicyclo[1.1.1]pentan-1-yl)-3,4-dihydro-2H-1-benzopyran-2-carboxamide], the EC50 is less than 10 nM.

`O=C(NC12CC(n3cc(-c4cnn(CC(F)(F)F)c4)cn3)(C1)C2)[C@H]1C[C@@H](O)c2cc(Cl)c(F)cc2O1` [Compound 564, (2R,4R)-6-chloro-7-fluoro-4-hydroxy-N-{3-[1′-(2,2,2-trifluoroethyl)-1H,1′H-[4,4′-bipyrazol]-1-yl]bicyclo[1.1.1]pentan-1-yl}-3,4-dihydro-2H-1-benzopyran-2-carboxamide]: the EC50 is less than 10 nM.

As to `O=C(NC12CC(n3cc(-c4ccc(OC(F)F)nc4)cn3)(C1)C2)[C@@H]1C[C@@H](O)c2cc(Cl)ccc2O1` [Compound 332, (2S,4R)-6-chloro-N-(3-{4-[6-(difluoromethoxy)pyridin-3-yl]-1H-pyrazol-1-yl}bicyclo[1.1.1]pentan-1-yl)-4-hydroxy-3,4-dihydro-2H-1-benzopyran-2-carboxamide], the EC50 was less than 10 nM.

With `O=C(NC12CC(n3cc(C(=O)N4CC[C@H](COC(F)(F)F)C4)cn3)(C1)C2)[C@H]1C[C@@H](O)c2cc(Cl)ccc2O1` [Compound 400, (2R,4R)-6-chloro-4-hydroxy-N-[3-(4-{(3S)-3-[(trifluoromethoxy)methyl]pyrrolidine-1-carbonyl}-1H-pyrazol-1-yl)bicyclo[1.1.1]pentan-1-yl]-3,4-dihydro-2H-1-benzopyran-2-carboxamide], the EC50 was in the range of 10 to 50 nM.

Consider `O=C(NC12CC(n3cc(OCCOC(F)(F)F)cn3)(C1)C2)C1COc2cc(Cl)c(Cl)cc2O1` (stereo not drawn) [Compound 458, 6,7-dichloro-N-(3-{4-[2-(trifluoromethoxy)ethoxy]-1H-pyrazol-1-yl}bicyclo[1.1.1]pentan-1-yl)-2,3-dihydro-1,4-benzodioxine-2-carboxamide], for which the EC50 is 10 to 50 nM.

In the case of `O=C(NC12CC(n3cc(OC[C@H]4C[C@@H](OC(F)(F)F)C4)cn3)(C1)C2)[C@H]1C[C@@H](O)c2cc(Cl)ccc2O1` [Compound 402, (2R,4R)-6-chloro-4-hydroxy-N-[3-(4-{[cis-3-(trifluoromethoxy)cyclobutyl]methoxy}-1H-pyrazol-1-yl)bicyclo[1.1.1]pentan-1-yl]-3,4-dihydro-2H-1-benzopyran-2-carboxamide], the concentration for a half-maximal effect (EC50) was less than 10 nM.
